From patent US10888519B2, “Immediate release pharmaceutical composition of iron chelating agents” (Jubilant Generics Limited, priority 2016, dated 2021)

Assays:
[1] = Bulk density, tapped density and flow properties (Hausner Ratio, Compressibility Index); format: physicochemical; details: for Hausner Ratio: tapped density / bulk density
Procedure: The composition of present invention were analyzed for bulk and tapped density and flow properties such as Hausner Ratio, Compressibility Index. Bulk Density and Tapped Density is determined using the standard method of Test 616 (Bulk Density and Tapped Density) of USP 32. The Hausner ratio may be calculated using formula ptap/pbulk where ptap represents tapped density of granulate mass and pbulk represents the loose bulk density of granulate mass. A Hausner ratio of <1.25 indicates a powder that is free flowing whereas >1.25 indicates poor flowability. Compressibility index is indirect measure of the flowability of the powder and it is determined according to US Pharmacopeia General Chapter <1174>. The smaller the compressibility index the better the flow properties. For example 5-15 indicates excellent, 12-16 good, 18-21 fair and >23 poor flow.

[2] = cited from earlier work
[3] = listed as Active Pharmaceutical Ingredient

O=C(O)c1ccc(-n2nc(-c3ccccc3O)nc2-c2ccccc2O)cc1 [Deferasirox, 4-[3,5-bis(2-hydroxyphenyl)-1H-1,2,4-triazol-1-yl]benzoic acid]
Tapped Density [1]: 0.300 g/mL | bulk density ([1]; API prior to granulation versus composition): about 0.185 g/mL | bulk density ([1]; Table 4): 0.185 g/mL | Compressibility Index (%) ([1]; listed as API): about 38.33% | Compressibility Index (%) [1, 3]: 38.33% (Very Poor) | Hausner Ratio ([1]; listed as API): about 1.62 | Hausner Ratio [1, 3]: 1.62 (Very Poor) | solubility in water [2]: poorly soluble in water
